System: recombinant NL-Rluc virus
Test: microbe, parasite or virus in culture
Assay type: cell-based, HIV
Settings: Human immunodeficiency virus 1, MT2, 120 h, NL-RLuc virus infecting MT-2 cells, 5 days of incubation, luciferase readout; at least 2 experiments; serum condition not given; read-out: EC50

| Structure (SMILES) | EC50 [nM] |
| --- | --- |
| Cc1nc2cc(-c3cnn(Cc4ccccc4)c3)nn2c(N2CCC(C)(C)CC2)c1[C@H](OC(C)(C)C)C(=O)O [Example 39, (S)-2-(2-(1-Benzyl-1H-pyrazol-4-yl)-7-(4,4-dimethylpiperidin-1-yl)-5-methylpyrazolo[1,5-a]pyrimidin-6-yl)-2-(tert-butoxy)acetic acid] | 7 |
| Cc1nc2cc(-n3cnc(Cc4ccccc4)c3)nn2c(N2CCC(C)(C)CC2)c1[C@H](OC(C)(C)C)C(=O)O [Example 34, (S)-2-(2-(4-Benzyl-1H-imidazol-1-yl)-7-(4,4-dimethylpiperidin-1-yl)-5-methylpyrazolo[1,5-a]pyrimidin-6-yl)-2-(tert-butoxy)acetic acid] | 26 |
| Cc1nc2cc(-n3nccc3Cc3ccccc3)nn2c(N2CCC(C)(C)CC2)c1[C@H](OC(C)(C)C)C(=O)O [Example 35, (S)-2-(2-(5 Benzyl-1H-pyrazol-1-yl)-7-(4,4-dimethylpiperidin-1-yl)-5-methylpyrazolo[1,5-a]pyrimidin-6-yl)-2-(tert-butoxy)acetic acid] | 573 |
| Cc1nc2cc(-c3ncc(Cc4ccc(F)cc4)s3)nn2c(N2CCC(C)(C3CC3)CC2)c1[C@H](OC(C)(C)C)C(=O)O [Example 24, (S)-2-(tert-Butoxy)-2-(7-(4-cyclopropyl-4-methylpiperidin-1-yl)-2-(5-(4-fluorobenzyl)thiazol-2-yl)-5-methylpyrazolo[1,5-a]pyrimidin-6-yl)acetic acid] | 26 |
| Cc1nc2cc(-c3ncc(Cc4ccc(F)cc4)s3)nn2c(-c2cc(F)c3c(c2C)CCCO3)c1[C@H](OC(C)(C)C)C(=O)O [Example 5, (2S)-2-(tert-Butoxy)-2-(7-(8-fluoro-5-methylchroman-6-yl)-2-(5-(4-fluorobenzyl)thiazol-2-yl)-5-methylpyrazolo[1,5-a]pyrimidin-6-yl)acetic acid] | 3 |
| Cc1nc2cc(-c3nc(Cc4ccc(F)cc4)no3)nn2c(-c2cc(F)c3c(c2C)CCCO3)c1[C@H](OC(C)(C)C)C(=O)O [Example 7, (2S)-2-(tert-Butoxy)-2-(7-(8-fluoro-5-methylchroman-6-yl)-2-(3-(4-fluorobenzyl)-1,2,4-oxadiazol-5-yl)-5-methylpyrazolo[1,5-a]pyrimidin-6-yl)acetic acid] | 28 |
| Cc1nc2cc(-c3nc4ccc(Cl)cc4n3C)nn2c(-c2cc(F)c3c(c2C)CCCO3)c1[C@H](OC(C)(C)C)C(=O)O [Example 3, (2S)-2-(tert-Butoxy)-2-(2-(6-chloro-1-methyl-1H-benzo[d]imidazol-2-yl)-7-(8-fluoro-5-methylchroman-6-yl)-5-methylpyrazolo[1,5-a]pyrimidin-6-yl)acetic acid] | 100 |
| Cc1nc2cc(-c3ncc(C(C)c4ccc(F)cc4)s3)nn2c(N2CCC(C)(C)CC2)c1[C@H](OC(C)(C)C)C(=O)O (stereo partly drawn) [Example 14, (2S)-2-(tert-Butoxy)-2-(7-(4,4-dimethylpiperidin-1-yl)-2-(5-(1-(4-fluorophenyl)ethyl)thiazol-2-yl)-5-methylpyrazolo[1,5-a]pyrimidin-6-yl)acetic acid] | 27 |
| Cc1nc2cc(-c3ncc(Cc4ccc(F)cc4)o3)nn2c(-c2cc(F)c3c(c2C)CCCO3)c1[C@H](OC(C)(C)C)C(=O)O [Example 6, (2S)-2-(tert-Butoxy)-2-(7-(8-fluoro-5-methylchroman-6-yl)-2-(5-(4-fluorobenzyl)oxazol-2-yl)-5-methylpyrazolo[1,5-a]pyrimidin-6-yl)acetic acid] | 6 |
| C=CCOC1(C)CCN(c2c([C@H](OC(C)(C)C)C(=O)O)c(C)nc3cc(-c4cnn(Cc5ccccc5)c4)nn23)CC1 [Example 40, (S)-2-(7-(4-(Allyloxy)-4-methylpiperidin-1-yl)-2-(1-benzyl-1H-pyrazol-4-yl)-5-methylpyrazolo[1,5-a]pyrimidin-6-yl)-2-(tert-butoxy)acetic acid] | 11 |
| COC1(C)CCN(c2c([C@H](OC(C)(C)C)C(=O)O)c(C)nc3cc(-c4ncc(Cc5ccc(F)cc5)s4)nn23)CC1 [Example 22, (S)-2-(tert-Butoxy)-2-(2-(5-(4-fluorobenzyl)thiazol-2-yl)-7-(4-methoxy-4-methylpiperidin-1-yl)-5-methylpyrazolo[1,5-a]pyrimidin-6-yl)acetic acid] | 12 |
| CCC1(C)CCN(c2c([C@H](OC(C)(C)C)C(=O)O)c(C)nc3cc(-c4ncc(Cc5ccc(F)cc5)s4)nn23)CC1 [Example 17, (S)-2-(tert-Butoxy)-2-(7-(4-ethyl-4-methylpiperidin-1-yl)-2-(5-(4-fluorobenzyl)thiazol-2-yl)-5-methylpyrazolo[1,5-a]pyrimidin-6-yl)acetic acid] | 13 |
| Cc1nc2cc(-c3nc4cc(-c5ccccc5)ccc4[nH]3)nn2c(-c2cc(F)c3c(c2C)CCCO3)c1[C@H](OC(C)(C)C)C(=O)O [Example 4, (2S)-2-(tert-Butoxy)-2-(7-(8-fluoro-5-methylchroman-6-yl)-5-methyl-2-(5-phenyl-1H-benzo[d]imidazol-2-yl)pyrazolo[1,5-a]pyrimidin-6-yl)acetic acid] | 133 |
| Cc1nc2cc(N3CCN(Cc4ccccc4)C3=O)nn2c(N2CCC(C)(C)CC2)c1[C@H](OC(C)(C)C)C(=O)O [Example 26, (S)-2-(2-(3-Benzyl-2-oxoimidazolidin-1-yl)-7-(4,4-dimethylpiperidin-1-yl)-5-methylpyrazolo[1,5-a]pyrimidin-6-yl)-2-(tert-butoxy)acetic acid] | 145 |
| Cc1nc2cc(-c3ncc(-c4ccc(F)cc4)s3)nn2c(-c2cc(F)c3c(c2C)CCCO3)c1[C@H](OC(C)(C)C)C(=O)O [Example 8, (2S)-2-(tert-Butoxy)-2-(7-(8-fluoro-5-methylchroman-6-yl)-2-(5-(4-fluorophenyl)thiazol-2-yl)-5-methylpyrazolo[1,5-a]pyrimidin-6-yl)acetic acid] | 11 |
| Cc1nc2cc(-c3ncc(Cc4ccc(F)cc4)s3)nn2c(N2CC=C(c3ccccc3)CC2)c1[C@H](OC(C)(C)C)C(=O)O [Example 20, (S)-2-(tert-Butoxy)-2-(2-(5-(4-fluorobenzyl)thiazol-2-yl)-5-methyl-7-(4-phenyl-5,6-dihydropyridin-1(2H)-yl)pyrazolo[1,5-a]pyrimidin-6-yl)acetic acid] | 877 |
| Cc1nc2cc(-n3ccc(Cc4ccccc4)n3)nn2c(N2CCC(C)(C)CC2)c1[C@H](OC(C)(C)C)C(=O)O [Example 36, (S)-2-(2-(3-Benzyl-1H-pyrazol-1-yl)-7-(4,4-dimethylpiperidin-1-yl)-5-methylpyrazolo[1,5-a]pyrimidin-6-yl)-2-(tert-butoxy)acetic acid] | 84 |

Same assay, conditions: NL-RLuc virus infecting MT-2 cells, 5 days of incubation, luciferase readout; at least 2 experiments; serum condition not given; read-out: EC50

| Structure (SMILES) | EC50 [nM] |
| --- | --- |
| Cc1nc2cc(N3CC(Cc4ccccc4)OC3=O)nn2c(N2CCC(C)(C)CC2)c1[C@H](OC(C)(C)C)C(=O)O (stereo partly drawn) [Example 29, (2S)-2-(2-(5-Benzyl-2-oxooxazolidin-3-yl)-7-(4,4-dimethylpiperidin-1-yl)-5-methylpyrazolo[1,5-a]pyrimidin-6-yl)-2-(tert-butoxy)acetic acid] | 6 |
| Cc1nc2cc(N3CCC(Oc4ccccc4)C3=O)nn2c(N2CCC(C)(C)CC2)c1[C@H](OC(C)(C)C)C(=O)O (stereo partly drawn) [Example 32, (2S)-2-(tert-Butoxy)-2-(7-(4,4-dimethylpiperidin-1-yl)-5-methyl-2-(2-oxo-3-phenoxypyrrolidin-1-yl)pyrazolo[1,5-a]pyrimidin-6-yl)acetic acid] | 339 |
| Cc1nc2cc(N3CC(Cc4ccccc4)OC3=O)nn2c(N2CCC(C)(C)CC2)c1[C@H](OC(C)(C)C)C(=O)O (stereo partly drawn) [Example 30, (2S)-2-(2-(5-Benzyl-2-oxooxazolidin-3-yl)-7-(4,4-dimethylpiperidin-1-yl)-5-methylpyrazolo[1,5-a]pyrimidin-6-yl)-2-(tert-butoxy)acetic acid] | 16 |
| Cc1nc2cc(N3C(=O)OCC3Cc3ccccc3)nn2c(N2CCC(C)(C)CC2)c1[C@H](OC(C)(C)C)C(=O)O (stereo partly drawn) [Example 27, (2S)-2-(2-(4-Benzyl-2-oxooxazolidin-3-yl)-7-(4,4-dimethylpiperidin-1-yl)-5-methylpyrazolo[1,5-a]pyrimidin-6-yl)-2-(tert-butoxy)acetic acid] | 478 |
| Cc1nc2cc(N3C(=O)OCC3Cc3ccccc3)nn2c(N2CCC(C)(C)CC2)c1[C@H](OC(C)(C)C)C(=O)O (stereo partly drawn) [Example 28, (2S)-2-(2-(4-Benzyl-2-oxooxazolidin-3-yl)-7-(4,4-dimethylpiperidin-1-yl)-5-methylpyrazolo[1,5-a]pyrimidin-6-yl)-2-(tert-butoxy)acetic acid] | 152 |
